Structures are written as SMILES. pIC50: −log10 of the molar value. Bounds are passed on as bounds.

52 compounds from US20080119515A1, “Heterocyclic Kinase Inhibitors: Methods of Use and Synthesis” (priority 2003, published 2008) can be followed below.

The target of this assay is T1, ZAP-70 (Homo sapiens, UniProt P43403).
T1 sequence (P43403 1-619): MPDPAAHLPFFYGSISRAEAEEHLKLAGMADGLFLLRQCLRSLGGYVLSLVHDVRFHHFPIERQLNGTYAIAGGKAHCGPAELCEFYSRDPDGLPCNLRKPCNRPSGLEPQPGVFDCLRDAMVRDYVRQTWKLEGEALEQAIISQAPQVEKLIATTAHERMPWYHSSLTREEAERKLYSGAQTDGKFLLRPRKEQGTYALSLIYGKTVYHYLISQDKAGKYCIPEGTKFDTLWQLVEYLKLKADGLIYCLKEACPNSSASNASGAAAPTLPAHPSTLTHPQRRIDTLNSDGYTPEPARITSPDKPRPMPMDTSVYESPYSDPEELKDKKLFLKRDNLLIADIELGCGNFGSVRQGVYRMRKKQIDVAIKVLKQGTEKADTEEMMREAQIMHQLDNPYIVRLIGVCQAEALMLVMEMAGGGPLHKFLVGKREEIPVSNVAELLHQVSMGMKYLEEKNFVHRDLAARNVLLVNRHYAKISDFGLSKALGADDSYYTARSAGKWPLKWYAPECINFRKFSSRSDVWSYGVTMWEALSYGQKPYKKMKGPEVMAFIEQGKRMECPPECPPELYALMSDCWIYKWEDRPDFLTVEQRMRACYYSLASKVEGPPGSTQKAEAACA
Briefly: DELFIA assay (ZAP-70 kinase, phosphorylation of biotinylated poly(glu,tyr)). The note with it: ZAP-70 DELFIA, class symbols; read-out: Activity (IC50 in vitro). It counts as biochemical. In outline:
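3.1 nM ZAP-70 pre-incubated 10 min at room temperature with compound ([…]) and 62.5 nM biotinylated poly(glu,tyr) in 62.5 mM Mops pH 7.0, 12.5 mM MgCl2, 12.5% glycerol, 6.25% DMSO (pre-incubation concentrations); ATP added from 5 mM stock, 30 min reaction, EDTA stop. Phosphorylation read by DELFIA europium anti-phosphotyrosine fluorescence (340/615).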

Consider `CC(Nc1cc(C(=O)N2CCC[C@H]2CN2CCCC2)c2cc(-c3ccc(C#N)cc3)ccc2n1)c1ccc2ccccc2c1` (stereo partly shown) [Compound 208], for which the pIC50 was less than 5.00.
The result for `N#Cc1ccc(-c2ccc3nc(N[C@@H]4c5ccccc5C[C@@H]4O)cc(C(=O)N4CCC[C@H]4CN4CCCC4)c3c2)cc1` [Compound 209] reads less than 5.00; that for `N#Cc1ccc(-c2ccc3nc(N(Cc4ccccc4)Cc4ccccc4)cc(C(=O)N4CCC[C@H]4CN4CCCC4)c3c2)cc1` [Compound 210], less than 5.00; that for `CN(Cc1ccccc1Cl)c1cc(C(=O)N2CCC[C@H]2CN2CCCC2)c2cc(-c3ccc(C#N)cc3)ccc2n1` [Compound 211], less than 5.00.
For `N#Cc1ccc(-c2ccc3nc(N(CCO)Cc4ccccc4)cc(C(=O)N4CCC[C@H]4CN4CCCC4)c3c2)cc1` [Compound 212], the negative-log IC50 (pIC50) is less than 5.00.
The result for `N#Cc1ccc(-c2ccc3nc(N(CCCO)Cc4ccccc4)cc(C(=O)N4CCC[C@H]4CN4CCCC4)c3c2)cc1` [Compound 213] reads less than 5.00.
The result for `C[C@@H](Nc1cc(C(=O)N2CCC[C@H]2CN2CCCC2)c2cc(-c3ccc(C#N)cc3)ccc2n1)[C@@H](O)c1ccccc1` [Compound 214] reads less than 5.00; that for `N#Cc1ccc(-c2ccc3nc(N4CCc5[nH]c6c(F)cccc6c5C4)cc(C(=O)N4CCC[C@H]4CN4CCCC4)c3c2)cc1` [Compound 215], less than 5.00.
The result for `N#Cc1ccc(-c2ccc3nc(NCc4cccc5ccccc45)cc(C(=O)N4CCC[C@H]4CN4CCCC4)c3c2)cc1` [Compound 216] reads less than 5.00; that for `N#Cc1ccc(-c2ccc3nc(NCc4cccc(-c5ccccc5)c4)cc(C(=O)N4CCC[C@H]4CN4CCCC4)c3c2)cc1` [Compound 217], less than 5.00; that for `C[C@H](c1cccc2ccccc12)N(C)c1cc(C(=O)N2CCC[C@H]2CN2CCCC2)c2cc(-c3ccc(C#N)cc3)ccc2n1` [Compound 218], less than 5.00.
Regarding `C[C@@H](c1cccc2ccccc12)N(C)c1cc(C(=O)N2CCC[C@H]2CN2CCCC2)c2cc(-c3ccc(C#N)cc3)ccc2n1` [Compound 219], the pIC50 is less than 5.00.
On to `N#Cc1ccc(-c2ccc3nc(NCCc4ccc(Cl)c(Cl)c4)cc(C(=O)N4CCC[C@H]4CN4CCCC4)c3c2)cc1` [Compound 220], for which the pIC50 is less than 5.00.
The result for `C[C@H](Nc1cc(C(=O)N2CCC[C@H]2CN2CCCC2)c2cc(-c3ccc(C#N)cc3)ccc2n1)c1ccc(Br)cc1` [Compound 221] reads less than 5.00; that for `CC(Nc1cc(C(=O)N2CCC[C@H]2CN2CCCC2)c2cc(-c3ccc(C#N)cc3)ccc2n1)c1ccc(Br)cc1` (stereo partly shown) [Compound 222], less than 5.00; that for `CC(Nc1cc(C(=O)N2CCC[C@H]2CN2CCCC2)c2cc(-c3ccc(C#N)cc3)ccc2n1)c1ccc(F)cc1` (stereo partly shown) [Compound 223], less than 5.00.
The result for `Cc1ccc(CNc2cc(C(=O)N3CCC[C@H]3CN3CCCC3)c3cc(-c4ccc(C#N)cc4)ccc3n2)c(C)c1` [Compound 224] reads less than 5.00; that for `Cc1cc(CNc2cc(C(=O)N3CCC[C@H]3CN3CCCC3)c3cc(-c4ccc(C#N)cc4)ccc3n2)ccc1F` [Compound 225], less than 5.00; that for `Cc1ccc(F)cc1CNc1cc(C(=O)N2CCC[C@H]2CN2CCCC2)c2cc(-c3ccc(C#N)cc3)ccc2n1` [Compound 226], less than 5.00.
On to `Cc1ccc(CNc2cc(C(=O)N3CCC[C@H]3CN3CCCC3)c3cc(-c4ccc(C#N)cc4)ccc3n2)cc1F` [Compound 227], for which the negative logarithm of the IC50 (pIC50) is less than 5.00.
For `CSc1ccccc1CNc1cc(C(=O)N2CCC[C@H]2CN2CCCC2)c2cc(-c3ccc(C#N)cc3)ccc2n1` [Compound 228], the pIC50 was less than 5.00.
The result for `N#Cc1ccc(-c2ccc3nc(NCc4cccc(Cl)c4F)cc(C(=O)N4CCC[C@H]4CN4CCCC4)c3c2)cc1` [Compound 229] reads less than 5.00.
As for `N#Cc1ccc(-c2ccc3nc(NCc4cc(Cl)ccc4F)cc(C(=O)N4CCC[C@H]4CN4CCCC4)c3c2)cc1` [Compound 230], the negative-log IC50 (pIC50) is less than 5.00.
Take `N#Cc1ccc(-c2ccc3nc(NCc4csc5ccccc45)cc(C(=O)N4CCC[C@H]4CN4CCCC4)c3c2)cc1` [Compound 231]: the pIC50 was less than 5.00.
On to `N#Cc1ccc(-c2ccc3nc(NCc4ccccc4OC(F)F)cc(C(=O)N4CCC[C@H]4CN4CCCC4)c3c2)cc1` [Compound 232], for which the negative logarithm of the IC50 (pIC50) is less than 5.00.
The result for `N#Cc1ccc(-c2ccc3nc(NCc4ccc(OC(F)F)cc4)cc(C(=O)N4CCC[C@H]4CN4CCCC4)c3c2)cc1` [Compound 233] reads less than 5.00; that for `N#Cc1ccc(-c2ccc3nc(NCc4ccc(-c5cccs5)cc4)cc(C(=O)N4CCC[C@H]4CN4CCCC4)c3c2)cc1` [Compound 234], less than 5.00; that for `N#Cc1ccc(-c2ccc3nc(NCc4ccccc4N4CCCCC4)cc(C(=O)N4CCC[C@H]4CN4CCCC4)c3c2)cc1` [Compound 235], less than 5.00.
The result for `N#Cc1ccc(-c2ccc3nc(NCc4ccccc4OC(F)(F)F)cc(C(=O)N4CCC[C@H]4CN4CCCC4)c3c2)cc1` [Compound 236] reads less than 5.00.
Consider `N#Cc1ccc(-c2ccc3nc(NCc4cccc(C(F)(F)F)c4F)cc(C(=O)N4CCC[C@H]4CN4CCCC4)c3c2)cc1` [Compound 237], for which the negative logarithm of the IC50 (pIC50) was less than 5.00.
The result for `N#Cc1ccc(-c2ccc3nc(NCc4cc(C(F)(F)F)ccc4F)cc(C(=O)N4CCC[C@H]4CN4CCCC4)c3c2)cc1` [Compound 238] reads less than 5.00; that for `N#Cc1ccc(-c2ccc3nc(NCc4ccc(F)cc4C(F)(F)F)cc(C(=O)N4CCC[C@H]4CN4CCCC4)c3c2)cc1` [Compound 239], less than 5.00.
`N#Cc1ccc(-c2ccc3nc(NCc4ccc(C(F)(F)F)cc4F)cc(C(=O)N4CCC[C@H]4CN4CCCC4)c3c2)cc1` [Compound 240]: the negative-log IC50 (pIC50) was less than 5.00.
The result for `N#Cc1ccc(-c2ccc3nc(NCc4cc(F)ccc4C(F)(F)F)cc(C(=O)N4CCC[C@H]4CN4CCCC4)c3c2)cc1` [Compound 241] reads less than 5.00.
For `N#Cc1ccc(-c2ccc3nc(NCc4csc5ccc(Cl)cc45)cc(C(=O)N4CCC[C@H]4CN4CCCC4)c3c2)cc1` [Compound 242], the pIC50 was less than 5.00.
Turning to `N#Cc1ccc(-c2ccc3nc(NCCc4ccc(Br)cc4)cc(C(=O)N4CCC[C@H]4CN4CCCC4)c3c2)cc1` [Compound 243], the negative-log IC50 (pIC50) is less than 5.00.
The result for `CCN(Cc1ccc(C)cc1)c1cc(C(=O)N2CCC[C@H]2CN2CCCC2)c2cc(-c3ccc(C#N)cc3)ccc2n1` [Compound 244] reads less than 5.00; that for `N#Cc1ccc(-c2ccc3nc(N4Cc5ccccc5C[C@H]4CO)cc(C(=O)N4CCC[C@H]4CN4CCCC4)c3c2)cc1` [Compound 245], less than 5.00.
The result for `CN(Cc1cccc2ccccc12)c1cc(C(=O)N2CCC[C@H]2CN2CCCC2)c2cc(-c3ccc(C#N)cc3)ccc2n1` [Compound 246] reads less than 5.00.
Regarding `N#Cc1ccc(-c2ccc3nc(N(CCCCO)Cc4ccccc4)cc(C(=O)N4CCC[C@H]4CN4CCCC4)c3c2)cc1` [Compound 247], the pIC50 is less than 5.00.
For the compound `CN(Cc1ccc(Cl)c(Cl)c1)c1cc(C(=O)N2CCC[C@H]2CN2CCCC2)c2cc(-c3ccc(C#N)cc3)ccc2n1` [Compound 248], the pIC50 was less than 5.00.
The result for `N#Cc1ccc(-c2ccc3nc(NNCc4ccccc4)cc(C(=O)N4CCC[C@H]4CN4CCCC4)c3c2)cc1` [Compound 249] reads less than 5.00; that for `N#Cc1ccc(-c2ccc3nc(NCc4ccc(F)cc4Cl)cc(C(=O)N4CCC[C@H]4CN4CCCC4)c3c2)cc1` [Compound 250], less than 5.00; that for `N#Cc1ccc(-c2ccc3nc(NCc4ccccc4-c4ccccc4)cc(C(=O)N4CCC[C@H]4CN4CCCC4)c3c2)cc1` [Compound 251], less than 5.00.
The result for `N#Cc1ccc(-c2ccc3nc(NCc4ccc(-c5ccccc5)cc4)cc(C(=O)N4CCC[C@H]4CN4CCCC4)c3c2)cc1` [Compound 252] reads less than 5.00; that for `N#Cc1ccc(-c2ccc3nc(N4CCCC4Cc4ccccc4)cc(C(=O)N4CCC[C@H]4CN4CCCC4)c3c2)cc1` (stereo partly shown) [Compound 253], less than 5.00.
Take `N#Cc1ccc(-c2ccc3nc(N4CCC(c5ccccc5)C4)cc(C(=O)N4CCC[C@H]4CN4CCCC4)c3c2)cc1` (stereo partly shown) [Compound 254]: the negative-log IC50 (pIC50) was less than 5.00.
The result for `N#Cc1ccc(-c2ccc3nc(N4CCOC(c5ccccc5)C4)cc(C(=O)N4CCC[C@H]4CN4CCCC4)c3c2)cc1` (stereo partly shown) [Compound 255] reads less than 5.00; that for `N#Cc1ccc(-c2ccc3nc(N4CCSC(c5ccccc5)C4)cc(C(=O)N4CCC[C@H]4CN4CCCC4)c3c2)cc1` (stereo partly shown) [Compound 256], less than 5.00.
For the compound `N#Cc1ccc(-c2ccc3nc(N4CCCC4c4ccccc4)cc(C(=O)N4CCC[C@H]4CN4CCCC4)c3c2)cc1` (stereo partly shown) [Compound 257], the negative logarithm of the IC50 (pIC50) was less than 5.00.
The result for `N#Cc1ccc(-c2ccc3nc(N4CCC[C@@H]4c4ccccc4Cl)cc(C(=O)N4CCC[C@H]4CN4CCCC4)c3c2)cc1` [Compound 258] reads less than 5.00; that for `N#Cc1ccc(-c2ccc3nc(N4CCCC4c4ccc(Cl)cc4)cc(C(=O)N4CCC[C@H]4CN4CCCC4)c3c2)cc1` (stereo partly shown) [Compound 259], less than 5.00.
